Measured values reported in ChEMBL document CHEMBL1201862, “PubChem BioAssay data set” (2004).
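A five-concentration, 48-hour dose response in 96-well plates underlies each endpoint, interpolated linearly between surrounding concentrations. Abbreviation: GI50, concentration required for 50% inhibition of growth.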 Activity calls are given as the source filed them. Rule as the data show it: active = GI50 up to about 1.1 µM and inactive = higher.

How the values were obtained:
Experiment in all cases: growth of human tumour cells (NCI), 48 h
MOLT-4 = test system: MOLT-4
HCC 2998 = test system: HCC 2998
HCT-116 = test system: HCT-116
A549 = test system: A549
MDA-MB-435 = test system: MDA-MB-435
SW-620 = test system: SW-620
PC-3 = test system: PC-3
UACC-257 = test system: UACC-257
SK-OV-3 = test system: SK-OV-3
SNB-19 = test system: SNB-19
SF-295 = test system: SF-295
A498 = test system: A498
OVCAR-8 = test system: OVCAR-8
T47D = test system: T47D
M14 = test system: M14
RPMI-8226 = test system: RPMI-8226
HOP-62 = test system: HOP-62
SR = test system: SR
NCI-H460 = test system: NCI-H460
786-0 = test system: 786-0
COLO 205 = test system: COLO 205
ACHN = test system: ACHN
RXF 393 = test system: RXF 393
MDA-N = test system: MDA-N
SNB-75 = test system: SNB-75
K562 = test system: K562
NCI/ADR-RES = test system: NCI/ADR-RES
Malme-3M = test system: Malme-3M
SK-MEL-2 = test system: SK-MEL-2
CCRF-CEM = test system: CCRF-CEM
BT-549 = test system: BT-549
MDA-MB-231 = test system: MDA-MB-231
OVCAR-3 = test system: OVCAR-3
OVCAR-5 = test system: OVCAR-5
SK-MEL-28 = test system: SK-MEL-28
IGROV-1 = test system: IGROV-1
HL-60 = test system: HL-60
U-251 = test system: U-251
TK-10 = test system: TK-10
HT-29 = test system: HT-29
KM12 = test system: KM12
SN12C = test system: SN12C
EKVX = test system: EKVX
SF-268 = test system: SF-268
UACC-62 = test system: UACC-62
CAKI-1 = test system: CAKI-1
UO-31 = test system: UO-31
SK-MEL-5 = test system: SK-MEL-5
SF-539 = test system: SF-539
MCF7 = test system: MCF7
DU-145 = test system: DU-145
LOX IMVI = test system: LOX IMVI
HCT-15 = test system: HCT-15
NCI-H522 = test system: NCI-H522
OVCAR-4 = test system: OVCAR-4
NCI-H23 = test system: NCI-H23
NCI-H226 = test system: NCI-H226
HOP-92 = test system: HOP-92

For O=C1CCCCC/C1=C\c1ccc([N+](=O)[O-])cc1, the GI50 (MOLT-4) was 41.7 µM (inactive), the GI50 (HCC 2998) was 17.1 µM (inactive) and the GI50 (HCT-116) was 22.7 µM (inactive). The GI50 (A549) was 36.5 µM (inactive), the GI50 (MDA-MB-435) was 38.1 µM (inactive) and the GI50 (SW-620) was 39.9 µM (inactive). The GI50 (PC-3) was 38.6 µM (inactive), the GI50 (UACC-257) was 20.9 µM (inactive) and the GI50 (SK-OV-3) was 36.1 µM (inactive). For the same compound, the GI50 (SNB-19) was 29.4 µM (inactive), the GI50 (SF-295) was 35.2 µM (inactive) and the GI50 (A498) was 35.2 µM (inactive). The GI50 (OVCAR-8) was 38.8 µM (inactive), the GI50 (T47D) was 31.5 µM (inactive) and the GI50 (M14) was 32.1 µM (inactive). For the same compound, the GI50 (RPMI-8226) was 33.3 µM (inactive), the GI50 (HOP-62) was 38.5 µM (inactive) and the GI50 (SR) was 40.1 µM (inactive). For the same compound, the GI50 (NCI-H460) was 20.1 µM (inactive), the GI50 (786-0) was 19.7 µM (inactive) and the GI50 (COLO 205) was 24 µM (inactive). For the same compound, the GI50 (ACHN) was 21.5 µM (inactive), the GI50 (RXF 393) was 33.4 µM (inactive) and the GI50 (MDA-N) was 42.4 µM (inactive). For the same compound, the GI50 (SNB-75) was 29.7 µM (inactive), the GI50 (K562) was 50 µM (inactive) and the GI50 (NCI/ADR-RES) was 37.8 µM (inactive). For the same compound, the GI50 (Malme-3M) was 43.7 µM (inactive), the GI50 (SK-MEL-2) was 33 µM (inactive) and the GI50 (CCRF-CEM) was 26.7 µM (inactive). For the same compound, the GI50 (BT-549) was 23 µM (inactive), the GI50 (MDA-MB-231) was 13 µM (inactive) and the GI50 (OVCAR-3) was 21.9 µM (inactive). The GI50 (OVCAR-5) was 31.4 µM (inactive), the GI50 (SK-MEL-28) was 65 µM (inactive) and the GI50 (IGROV-1) was 16.3 µM (inactive). The GI50 (HL-60) was 28.9 µM (inactive), the GI50 (U-251) was 31.3 µM (inactive) and the GI50 (TK-10) was 28.5 µM (inactive). The GI50 (HT-29) was 30.3 µM (inactive), the GI50 (KM12) was 19.8 µM (inactive) and the GI50 (SN12C) was 23.7 µM (inactive). The GI50 (EKVX) was 35.3 µM (inactive), the GI50 (SF-268) was 30.5 µM (inactive) and the GI50 (UACC-62) was 27.8 µM (inactive). For the same compound, the GI50 (CAKI-1) was 22.7 µM (inactive), the GI50 (UO-31) was 24.5 µM (inactive) and the GI50 (SK-MEL-5) was 20.1 µM (inactive). The GI50 (SF-539) was 26.5 µM (inactive), the GI50 (MCF7) was 46.3 µM (inactive) and the GI50 (DU-145) was 41.4 µM (inactive).

With CC(=O)O[C@@H]1C2=C(C)C=C(O2)[C@H]2O[C@]2(C)C[C@H]2C=C(C(=O)O2)[C@H](OC(C)=O)CC1[C@@]1(C)CO1 (stereo partly specified) the GI50 (MOLT-4) was 9.64 µM (inactive), the GI50 (HCC 2998) was > 100 µM (inactive) and the GI50 (HCT-116) was 15.1 µM (inactive). For the same compound, the GI50 (A549) was 45.3 µM (inactive), the GI50 (MDA-MB-435) was 23.5 µM (inactive) and the GI50 (SW-620) was 12.8 µM (inactive). The GI50 (PC-3) was 32.4 µM (inactive), the GI50 (UACC-257) was 28.1 µM (inactive) and the GI50 (SK-OV-3) was > 100 µM (inactive). For the same compound, the GI50 (SNB-19) was > 100 µM (inactive), the GI50 (SF-295) was 36.1 µM (inactive) and the GI50 (A498) was > 100 µM (inactive). For the same compound, the GI50 (OVCAR-8) was 35.4 µM (inactive), the GI50 (T47D) was 18.8 µM (inactive) and the GI50 (M14) was 23.8 µM (inactive). For the same compound, the GI50 (RPMI-8226) was 13.9 µM (inactive), the GI50 (HOP-62) was 23 µM (inactive) and the GI50 (SR) was 18.7 µM (inactive). The GI50 (NCI-H460) was 37 µM (inactive), the GI50 (786-0) was 23.9 µM (inactive) and the GI50 (COLO 205) was 14.1 µM (inactive). The GI50 (LOX IMVI) was 18.4 µM (inactive), the GI50 (HCT-15) was 22 µM and the GI50 (ACHN) was 23.7 µM (inactive). For the same compound, the GI50 (NCI-H522) was 3.23 µM (inactive), the GI50 (RXF 393) was 17.2 µM (inactive) and the GI50 (MDA-N) was 30.3 µM (inactive). The GI50 (SNB-75) was 42.5 µM (inactive), the GI50 (K562) was 17 µM (inactive) and the GI50 (NCI/ADR-RES) was 29.4 µM (inactive). The GI50 (Malme-3M) was 17.5 µM (inactive), the GI50 (SK-MEL-2) was 56.1 µM (inactive) and the GI50 (CCRF-CEM) was 8.59 µM (inactive). The GI50 (BT-549) was 21.1 µM (inactive), the GI50 (MDA-MB-231) was 27.4 µM (inactive) and the GI50 (OVCAR-5) was 26.4 µM (inactive). The GI50 (SK-MEL-28) was 19.4 µM (inactive), the GI50 (OVCAR-4) was 27.7 µM (inactive) and the GI50 (IGROV-1) was 14.3 µM (inactive). The GI50 (U-251) was 19.1 µM (inactive), the GI50 (TK-10) was 60.3 µM (inactive) and the GI50 (HT-29) was 25.4 µM (inactive). For the same compound, the GI50 (KM12) was 36.6 µM (inactive), the GI50 (SN12C) was 21.3 µM (inactive) and the GI50 (EKVX) was 26.2 µM (inactive). The GI50 (SF-268) was 42 µM (inactive), the GI50 (NCI-H23) was 28.9 µM (inactive) and the GI50 (UACC-62) was 21.7 µM (inactive). The GI50 (NCI-H226) was > 100 µM (inactive), the GI50 (CAKI-1) was 24.2 µM (inactive) and the GI50 (UO-31) was 20.1 µM (inactive). The GI50 (SK-MEL-5) was 35.7 µM (inactive), the GI50 (SF-539) was 29.5 µM (inactive) and the GI50 (MCF7) was 18 µM (inactive). For the same compound, the GI50 (DU-145) was 31.3 µM (inactive).

In the case of COc1ccc(NC(C)=O)cc1N1C(=O)/C(=C\c2ccccc2)SC1c1cc(OC)c(OC)c(OC)c1 (stereo unspecified), the GI50 (MOLT-4) is reported as 25.6 µM (inactive), the GI50 (HCC 2998) is reported as 16.3 µM (inactive) and the GI50 (HCT-116) is reported as 14.4 µM (inactive). The GI50 (A549) was 30.1 µM (inactive), the GI50 (MDA-MB-435) was 24.9 µM (inactive) and the GI50 (SW-620) was 40.4 µM (inactive). For the same compound, the GI50 (PC-3) was 29 µM (inactive), the GI50 (UACC-257) was > 100 µM (inactive) and the GI50 (SK-OV-3) was 41 µM (inactive). The GI50 (SNB-19) was 34 µM (inactive), the GI50 (SF-295) was 42.1 µM (inactive) and the GI50 (A498) was 60 µM (inactive). For the same compound, the GI50 (OVCAR-8) was 23.1 µM (inactive), the GI50 (T47D) was 40.1 µM (inactive) and the GI50 (M14) was 35.6 µM (inactive). For the same compound, the GI50 (RPMI-8226) was 34 µM (inactive), the GI50 (HOP-62) was 39.2 µM (inactive) and the GI50 (SR) was 37.8 µM (inactive). For the same compound, the GI50 (NCI-H460) was 15.5 µM (inactive), the GI50 (786-0) was 19.2 µM (inactive) and the GI50 (COLO 205) was 26.6 µM (inactive). The GI50 (LOX IMVI) was 14.9 µM (inactive), the GI50 (HCT-15) was 21.7 µM and the GI50 (ACHN) was 39.2 µM (inactive). The GI50 (NCI-H522) was 13.8 µM (inactive), the GI50 (RXF 393) was 27 µM (inactive) and the GI50 (MDA-N) was 25.8 µM (inactive). For the same compound, the GI50 (K562) was 33.7 µM (inactive), the GI50 (NCI/ADR-RES) was 17.4 µM (inactive) and the GI50 (Malme-3M) was 24.3 µM (inactive). The GI50 (SK-MEL-2) was 31.8 µM (inactive), the GI50 (CCRF-CEM) was 21.2 µM (inactive) and the GI50 (BT-549) was 47.4 µM (inactive). The GI50 (MDA-MB-231) was 52.7 µM (inactive), the GI50 (OVCAR-3) was 29.4 µM (inactive) and the GI50 (SK-MEL-28) was 80.7 µM (inactive). For the same compound, the GI50 (IGROV-1) was 25.9 µM (inactive), the GI50 (HL-60) was 26.8 µM (inactive) and the GI50 (U-251) was 32.5 µM (inactive). For the same compound, the GI50 (TK-10) was > 100 µM (inactive), the GI50 (HT-29) was 32.4 µM (inactive) and the GI50 (KM12) was 16.3 µM (inactive). The GI50 (SN12C) was 80.5 µM (inactive), the GI50 (EKVX) was 27.2 µM (inactive) and the GI50 (SF-268) was 17.7 µM (inactive). For the same compound, the GI50 (NCI-H23) was 36.5 µM (inactive), the GI50 (UACC-62) was 30.4 µM (inactive) and the GI50 (NCI-H226) was 24 µM (inactive). For the same compound, the GI50 (CAKI-1) was 34.7 µM (inactive), the GI50 (UO-31) was 33.7 µM (inactive) and the GI50 (SK-MEL-5) was 12 µM (inactive). The GI50 (SF-539) was 22.6 µM (inactive), the GI50 (HOP-92) was 14.6 µM (inactive) and the GI50 (MCF7) was 28.5 µM (inactive). The GI50 (DU-145) was 20.4 µM (inactive).
